Results: patent US20260355163A1, “TREATMENT OF FASCIOLOSIS” (INTERVET INC., priority 2022, published 2026)
“Also recorded” adds a separate entry of the source. Where two headings read alike, the source gives them in different places.

Assays:
[1] = tested on: Fasciola hepatica Newly Excysted Juveniles (NEJs); assay: whole organism screen of Fasciola hepatica NEJs: microscopic scoring of phenotype and motility (viability)
Procedure: The effect of test compounds in a whole organism screen of Fasciola hepatica Newly Excysted Juveniles (NEJs) was investigated along with DMSO (− control), triclabendazole (10 μM, + control) and media) and their anti-flukicidal activity was assessed at both 24 and 72 hours.
(§1) The viability detection of Fasciola hepatica NEJs is based on qualitative microscopic evaluation of motility and phenotype and additionally measuring propidium iodide to make use of the differential uptake of fluorophores (such as propidium iodide) by living organisms.
(§2) NEJs were prepared according to Edwards et al.. Approximately 12 NEJs/compound were cultivated. NEJ/compound co-cultures were placed at 37 °C in a humidified atmosphere containing 5% CO2. NEJ/compound co-cultures were incubated for a total of 72 hrs. At 24h, an assessment of the gross phenotype was made for all NEJ/compound co-cultures and bright field images were captured. At 72 h both phenotype and motility were quantified in comparison to live DMSO controls based on a microscopic scoring method detailed in [1] as well as summarised in Table 1 below.

[2] = tested on: common liver fluke (Fasciola hepatica); details: cited from earlier work; for effectiveness against liver fluke stages: mature flukes and immature stages (early immature 1 to 6 weeks old, immature 6 to 9 weeks old)
[3] = tested on: Fasciola hepatica Newly Excysted Juveniles (NEJs); assay: Propidium Iodide (PI) uptake by Fasciola hepatica NEJs in co-culture with compound
Procedure: as §1, §2
Propidium Iodide (PI) was then added to the NEJ/compound co-cultures (to a final concentration of […]) and these co-cultures were imaged under both Bright field and Texas Red settings.

[4] = 72 h, in comparison to live DMSO controls, triclabendazole + control at 10 μM, concentration of test compounds not given
[5] = overall conclusion from viability, phenotype/motility and PI

Row | Compound | effectiveness against liver fluke stages [2] | Score (mean) motility 1 to 5 (highest) [1, 4] | Score (mean) phenotype 1 to 6 (highest) [1, 4] | active against Fasciola hepatica NEJs during the viability assessment ([1]; after 24 hours) | phenotype change and impaired motility significantly different to DMSO ([1]; after 72 hours) | significant activity against juvenile stages of Fasciola hepatica [1, 5] | further results
1 | Cc1cc(C2=NOC(c3cc(Cl)cc(Cl)c3)(C(F)(F)F)C2)ccc1C(=O)NCC(=O)NCC(F)(F)F (centres unmarked) [Compound 1, 4-[5-(3,5-dichlorophenyl)-5-trifluoromethyl-4,5-dihydroisoxazol-3-yl]-2-methyl-N-[(2,2,2-trifluoro-ethylcarbamoyl)-methyl]-benzamide] | – | – | – | – | – | – | Score (mean) motility 1 to 5 (highest) [1]: 5.0; Score (mean) phenotype 1 to 6 (highest) [1]: 5.5; active against Fasciola hepatica NEJs during the viability assessment [1]: active; phenotype change and impaired motility significantly different to DMSO [1]: both a phenotype change and impaired motility significantly different to DMSO; significant activity against juvenile stages of Fasciola hepatica [1]: significant activity
2 | N#Cc1cc(I)c(O)c([N+](=O)[O-])c1 [nitroxynil] | only effective against the mature flukes and not against the immature stages; also recorded: effective against fluke from 8 weeks post infection | – | – | – | – | – | –
3 | C#CCNC(=O)CNC(=O)c1sc(C2=NO[C@@](c3cc(Cl)c(Cl)c(Cl)c3)(C(F)(F)F)C2)cc1C [Compound 6] | – | 5.0 | 5.6 | active | both a phenotype change and impaired motility significantly different to DMSO | significant activity | –
4 | C#CCNC(=O)CNC(=O)c1sc(C2=NO[C@](c3cc(Cl)c(Cl)c(Cl)c3)(C(F)(F)F)C2)c2c1CCCC2 [Compound 8] | – | 5.0 | 5.7 | active | both a phenotype change and impaired motility significantly different to DMSO | significant activity | –
5 | CS(=O)(=O)CC(=O)N1CC2(C1)OCc1cc(C3=NO[C@@](c4cc(Cl)c(F)c(Cl)c4)(C(F)(F)F)C3)ccc12 (stereo in doubt) [Compound 5, 1-(5′-(5-(3,5-dichloro-4-fluorophenyl)-5-(trifluoromethyl)-4,5-dihydroisoxazol-3-yl)-3′H-spiro[azetidine-3,1′-isobenzofuran]-1-yl)-2-(methylsulfonyl)ethan-1-one] | – | 5.0 | 5.7 | active | both a phenotype change and impaired motility significantly different to DMSO | significant activity | –
6 | O=C(Nc1cc(Cl)cc(Cl)c1O)c1c(O)c(Cl)cc(Cl)c1Cl [oxyclozanide] | only effective against the mature flukes and not against the immature stages; also recorded: effective only against mature flukes | – | – | – | – | – | –
7 | CSc1nc2cc(Cl)c(Oc3cccc(Cl)c3Cl)cc2[nH]1 [Triclabendazole] | effective against mature stages of the common liver fluke (Fasciola hepatica) as well as all immature stages | 5.0 | 5.8 | – | – | – | effectiveness against early immature liver fluke larvae ([2]; early immature larvae (1 to 6 weeks old)): effective against all early immature liver fluke larvae
8 | O=C(CNC(=O)c1ccc(C2=NOC(c3cc(Cl)cc(C(F)(F)F)c3)(C(F)(F)F)C2)c2ccccc12)NCC(F)(F)F (centres unmarked) [Compound 3, 4-[5-[3-chloro-5-(trifluoromethyl)phenyl]-4,5-dihydro-5-(trifluoromethyl)-3-isoxazolyl]-N-[2-oxo-2-[(2,2,2-trifluoroethyl)amino]ethyl]-1-naphthalene-carboxamide] | – | 5.0 | 5.7 | active | both a phenotype change and impaired motility significantly different to DMSO | significant activity | –
9 | Nc1cc(C(Cl)=C(Cl)Cl)c(S(N)(=O)=O)cc1S(N)(=O)=O [clorsulon] | effective only against mature flukes | – | – | – | – | – | –
10 | C#CCNC(=O)CNC(=O)c1sc(C2=NO[C@@](c3cc(Cl)c(Cl)c(Cl)c3)(C(F)(F)F)C2)c2c1CCCC2 [Compound 7] | – | 4.8 | 5.7 | active | both a phenotype change and impaired motility significantly different to DMSO | significant activity | –
11 | CCCSc1ccc2nc(NC(=O)OC)[nH]c2c1 [albendazole] | only effective against the mature flukes and not against the immature stages; also recorded: effective only against mature flukes | – | – | – | – | – | –
12 | Cn1nc(C(F)(F)C(F)(F)F)c(C(F)(F)F)c1-n1cc(-c2ccc(Cl)c(C(=O)NC3(C#N)CC3)c2)cn1 [Compound 10, 2-chloro-N-(1-cyanocyclopropyl)-5-[1-[2-methyl-5-(1,1,2,2,2-pentafluoroethyl)-4-(trifluoromethyl)pyrazol-3-yl]pyrazol-4-yl]benzamide] | – | 4.8 | 3.8 | active | both a phenotype change and impaired motility significantly different to DMSO | – | –
13 | Cc1cc(C2=NO[C@@](c3cc(Cl)c(Cl)c(Cl)c3)(C(F)(F)F)C2)sc1C(=O)NCC(=O)NCC(F)(F)F (stereo in doubt) [Compound 4, 3-methyl-N-(2-oxo-2-((2,2,2-trifluoroethyl)amino)ethyl)-5-[5-(3,4,5-trichlorophenyl)-5-(trifluoromethyl)-4,5-dihydroisoxazol-3-yl]thiophene-2-carboxamide] | – | – | – | – | – | – | Propidium Iodide positivity [3]: > 90%; Score (mean) motility 1 to 5 (highest) [1]: 5.0; Score (mean) phenotype 1 to 6 (highest) [1]: 5.7; active against Fasciola hepatica NEJs during the viability assessment [1]: active; phenotype change and impaired motility significantly different to DMSO [1]: both a phenotype change and impaired motility significantly different to DMSO; significant activity against juvenile stages of Fasciola hepatica [1]: significant activity
14 | Cc1cc(C2=NSC(c3cc(Cl)cc(Cl)c3)(C(F)(F)F)C2)ccc1C(=O)NCC(=O)NCC(F)(F)F (centres unmarked) [Compound 9] | – | 5.0 | 5.7 | active | both a phenotype change and impaired motility significantly different to DMSO | significant activity | –
15 | Cc1cc(C2=NO[C@@](c3cc(Cl)cc(Cl)c3)(C(F)(F)F)C2)ccc1C(=O)NCC(=O)NCC(F)(F)F [Compound 2] | – | – | – | – | – | – | Propidium Iodide positivity [3]: > 90%; Score (mean) motility 1 to 5 (highest) [1]: 5.0; Score (mean) phenotype 1 to 6 (highest) [1]: 5.8; active against Fasciola hepatica NEJs during the viability assessment [1]: active; phenotype change and impaired motility significantly different to DMSO [1]: both a phenotype change and impaired motility significantly different to DMSO; significant activity against juvenile stages of Fasciola hepatica [1]: significant activity
16 | Cc1cc(C(C#N)c2ccc(Cl)cc2)c(Cl)cc1NC(=O)c1cc(I)cc(I)c1O (centres unmarked) [closantel] | only effective against the mature flukes and not against the immature stages | – | – | – | – | – | effectiveness against 3-8 weeks old flukes ([2]; 3-8 weeks old flukes): partially effective; effectiveness against mature flukes ([2]; mature flukes): fully effective
